{
  "source": "patent US12435312B2",
  "about": "“Quantifying cell-derived changes in collagen synthesis, alignment, and mechanics in a 3D connective tissue model” (Brown University, priority 2022, dated 2025)",
  "key": {"[1]": {"test_system": "actomyosin network", "details": "disruption of the actomyosin network; cited from earlier work"}, "[2]": {"test_system": "normal human dermal fibroblasts (ring-shaped tissue constructs)", "experiment": "Tensile mechanical testing to failure of ring-shaped tissue constructs", "type": "cell-based", "protocol": "(§1) Cell Source and Culture Conditions: Juvenile normal human dermal fibroblasts (jNHDF) were purchased from PromoCell (Heidelberg, Germany). Cells were expanded in Dulbecco's Modified Eagle's medium (DMEM) with high glucose, 1-glutamine, phenol red, and sodium pyruvate (11995065, Thermo Fisher Scientific, Waltham, MA) supplemented with 10% FBS and 1% penicillin/streptomycin at 10% CO2 and 37° C. Cells were passaged (P3-8) and expanded using a standard trypsin protocol. Cells were rinsed with 1× PBS (SH30256.FS, Thomas Scientific, Swedesboro, NJ), exposed to 0.05% trypsin in PBS for 4 min, quenched with serum containing media, centrifuged at 220g for 3 min, resuspended, counted, and plated at a density of 3.5-7.0×10^3 cells per cm^2. Ring-shaped tissue constructs (5 mm) were seeded at 3×10^5 cells per well in 1 mL of media exchanged every 2/3 days unless otherwise noted. For media composition experiments, tissues were cultured in serum-free DMEM supplemented with 0.1 mm 2-phospho-l-ascorbic acid trisodium salt (SigmaAldrich, St. Louis, MO), 50.0 μg mL^−1 I-proline (Thermo Fisher), 1% penicillin/streptomycin (SFM+), advanced DMEM (12491015) supplemented with 4 mm GlutaMax and 1% penicillin/streptomycin (SFMA), or a 50:50 mixture of the two (50:50 SFM+/SFMA).\nFabrication of Ring-Shaped Tissue Constructs: Ring-shaped molds were designed usingCADsoftware (SolidWorks Corporation, Concord, MA) and fabricated from stainless steel 316 L on a CNC lathe (Protolabs, Maple Plain, MN). The stainless steel parts were designed to fit into a single well of a standard 24 well plate. Ring-shaped agarose gels were cast by placing the stainless steel part into a well filled with 1.5 mL of molten, sterile 2% (w/v) agarose (BP160-500, Fisher Scientific, Hampton, NH) in 1× PBS, allowed to harden for 15 min, and removed. […] A lid mirroring a standard 24 well plate lid was fabricated out of aluminum with through holes above each well to permit the placement of all 24 stainless steel parts simultaneously. Gels were equilibrated in serum-free DMEM with 1% penicillin/streptomycin at 37° C., 10% CO2 for at least 24 h before use.\nDrug Treatment: For all dose-response experiments, ring constructs were allowed to form for 24 h prior to treatment. FBS (12483020, Life Technologies, Carlsbad, CA), Y-27632 (S1049, Selleck Chemicals, Houston, TX), TGF-β1 (7754-BH-25, […]), and SB-431542 (S1067, Selleck Chemicals) doses were freshly prepared from frozen aliquots and resuspended in 50:50 SFM+/SFMA medium prior to feeding 3× per week. Doses of FBS were prepared at 10%, 1.0%, and 0.1% [v/v] concentrations with a 0% control. Y-27632 and SB-431542 were reconstituted in dimethyl sulfoxide (DMSO) and resuspended at a final concentration of 10, 1.0, 0.1, and a 0 μm vehicle control with a DMSO final volume always less than 0.1%. TGF-β1 was reconstituted in 0.1% bovine serum albumin (BSA) in 4 mm HCl (RB04, […]) and prepared at a final concentration of 10, 2, 0.4, and 0 ng mL^−1 vehicle control.\nMechanical Testing: Ring-shaped microtissues were mechanically tested using custom designed grippers on a uniaxial tensile testing setup (Instron 5943, Norwood, MA) equipped with a 5N (5 mn resolution) load cell. Agarose molds were trimmed with a razor blade and top and sideview brightfield images were obtained on a Nikon Eclipse Ts2 microscope (Nikon, Tokyo, Japan) to determine the initial elliptical cross-sectional area (A0). Just prior to testing, tissue constructs were gently removed from the agarose mold using forceps and mounted between grippers which consisted of two horizontal cylindrical segments with a circular diameter of 3 mm fabricated from glass filled nylon (PA614-GS, ProtoLabs). Tissues were brought to a 5 mm initial grip-to-grip distance and tests were performed in PBS at 37° C. […]"}, "[3]": {"test_system": "normal human dermal fibroblasts (ring-shaped tissue constructs)", "experiment": "Collagen quantification (pepsin-acid soluble collagen, sircol dye binding assay) of ring-shaped tissue constructs", "type": "cell-based", "details": "for effect on collagen content: p>0.05", "protocol": "as §1\nDrug Treatment: For all dose-response experiments, ring constructs were allowed to form for 24 h prior to treatment. […]\nCollagen Quantification: Tissues were homogenized with 2 mm glass beads for 2/3 min and solubilized in 0.1 mg mL^−1 pepsin in 0.5 m acetic acid at 4° C. for 48 h. Total pepsin-acid soluble collagen was quantified via sircol dye binding assay per kit instructions (S5000, Biocolor, United Kingdom). Absorbance was measured at 525 nm and collagen content was determined from a standard curve and adjusted to microgram equivalent of native pepsin-acid soluble collagen."}, "[4]": {"details": "10 ng mL^−1 TGF-β1 versus 10 μm SB431542, day 7"}, "[5]": {"details": "highest inhibitory concentration (10.0 μM) in 50:50 media, day 7 and 14, p<0.05"}, "[6]": {"details": "0.1, 1.0, 10.0 μM in 50:50 media from 24 h after seeding, 7 or 14 days, p>0.05"}},
  "data": [
    {"molecule": "cytochalasin", "values": [
      {"measurement": "effect on development of mechanical properties", "setting": "[1]", "value": "halts the development of mechanical properties"}
    ]},
    {"molecule": "TGF-β1: pleiotropic growth factor and proposed master mediator of fibrotic disorders", "values": [
      {"measurement": "increase in tissue stiffness, TGF-β1 stimulation versus inhibition with SB431542", "setting": "[2]; [4]", "value": 4.8, "unit": "fold"},
      {"measurement": "increase in tissue strength, TGF-β1 stimulation versus inhibition with SB431542", "setting": "[2]; [4]", "value": 6.5, "unit": "fold"},
      {"measurement": "effect on tissue mechanics (stiffness and strength)", "setting": "[2]; 0.4, 2.0, 10 ng mL^−1 in 50:50 media, day 7 and 14, p<0.05", "value": "increased tissue mechanics in a significant dose-dependent manner"},
      {"measurement": "change in collagen content", "setting": "[3]; 0.4, 2.0, 10 ng mL^−1 in 50:50 media, day 7 and 14", "value": "not a concomitant change"}
    ]},
    {"molecule": "Cc1ccc2c(c1)C(=O)C1(O)CCN(c3ccccc3)C1=N2", "note": "(stereo not drawn) [blebbistatin]", "values": [
      {"measurement": "effect on development of mechanical properties", "setting": "[1]", "value": "halts the development of mechanical properties"}
    ]},
    {"molecule": "NC(=O)c1ccc(-c2nc(-c3ccc4c(c3)OCO4)c(-c3ccccn3)[nH]2)cc1", "note": "[SB-431542]", "values": [
      {"measurement": "effect on tissue stiffness", "setting": "[2]; [5]", "value": "weakest stiffness and strength"},
      {"measurement": "effect on tissue strength", "setting": "[2]; [5]", "value": "weakest stiffness and strength"},
      {"measurement": "effect on collagen content", "setting": "[3]; 0.1, 1.0, 10.0 μM in 50:50 media, any dose or time point", "value": "no effect"}
    ]},
    {"molecule": "C[C@@H](N)[C@H]1CC[C@H](C(=O)Nc2ccncc2)CC1", "note": "[Y-27632]", "values": [
      {"measurement": "effect on tissue stiffness", "setting": "[2]; [6]", "value": "did not significantly affect"},
      {"measurement": "effect on tissue strength", "setting": "[2]; [6]", "value": "did not significantly affect"},
      {"measurement": "effect on collagen content", "setting": "[3]; 0.1, 1.0, 10.0 μM in 50:50 media from 24 h after seeding, 7 or 14 days", "value": "did not significantly affect"}
    ]}
  ]
}
